Measurements from patent US10201580B2, “Methods of feeding animals liquid feed with soluble fiber and sugar alcohol” (PURINA ANIMAL NUTRITION LLC, priority 2004, dated 2019).

Legend:
Holstein bull calves [1] = assay: Further trial, calf milk replacer without psyllium, with or without sorbitol: respiratory scores; format: in vivo; settings: 6 g per day of sorbitol; no psyllium
Source text: (§1) A further trial was ran to determine what effect sorbitol without a dietary fiber would have on calves fed an intensified diet of calf milk replacer. Forty-six three to ten day old Holstein bull calves weighing approximately 90 to 100 pounds were fed an intensified diet of calf milk replacer. Twenty-four calves were fed a calf milk replacer without psyllium and without sorbitol and twenty-two calves were fed calf milk replacer without psyllium but with sorbitol. […] were fed 6 grams each per day of sorbitol. Data for parameters presented in the Tables above was analyzed using the general linear model (GLM) statistical procedure of SAS™. Statistical analysis software for a randomized complete block design that included both the particular feed regimen and the week of the test period in the model statement. The SAS™ statistical analysis software is available from SAS Institute, Inc. of Cary, N.C. Additionally, all data was analyzed to determine the mean of the data for each variable under consideration during the collection period for the particular data. Additionally, the PDiff function of the GLM statistical procedure was used to characterize the mean values of the data by providing for comparisons between mean data values for the calves of different treatments for particular test parameters or variables.

[2] = Further trial, calf milk replacer without psyllium, with or without sorbitol: weight gain, CMR consumption, starter intake, feed:gain; format: in vivo, Holstein bull calves; settings: 6 g per day of sorbitol
Source text: as §1

Holstein bull calves [3] = assay: Further trial, calf milk replacer without psyllium, with or without sorbitol: weaning scores; format: in vivo; settings: 6 g per day of sorbitol; no psyllium
Source text: as §1

Holstein bull calves [4] = assay: Further trial, calf milk replacer without psyllium, with or without sorbitol: scour score and scour days; format: in vivo; settings: 6 g of sorbitol per day
Source text: as §1

Question: For `OC[C@@H](O)[C@@H](O)[C@H](O)[C@@H](O)CO` [sorbitol], which “difference in respiratory scores vs calves not fed any sorbitol” value (Holstein bull calves [1]) is on record?
Answer: The value was “no statistically significant difference”.

Question: What about the “difference in average feed:gain (feed efficiency) vs calves fed no sorbitol” value [2] of the same compound?
Answer: The value was “no statistically significant difference”.

Question: And the “difference in calf milk replacer consumption vs calves fed no sorbitol” value [2]?
Answer: Its value is “no statistically significant difference”.

Question: And the “difference in starter feed intake vs calves fed no sorbitol” value [2]?
Answer: Its value is “no statistically significant difference”.

Question: And the “difference in total weight gain vs calves fed no sorbitol” value [2]?
Answer: Its value is “no statistically significant difference”.

Question: What about the “difference in weaning scores vs calves not fed any sorbitol” value (Holstein bull calves [3]) of the same compound?
Answer: The value was “no statistically significant difference”.

Question: And the “difference in scour score vs calves fed no sorbitol” value (Holstein bull calves [4])?
Answer: The value was “no statistically significant different”.

Question: What about the “difference in scoured days vs calves fed no sorbitol” value (Holstein bull calves [4]) of the same compound?
Answer: The value was “no statistically significant different”.
